Type in all cases: biochemical
The target in assay [1] is T1, Sirt2 (α-tubulin Lys40 deacetylation) (Homo sapiens, UniProt Q8IXJ6).
T1 construct: Human gene fragment comprising Sirt2 residues 34-356; His-tag with linker comprising a TEV protease cleavage site (N, cleaved yes); made in house; host or cells: E. coli Rosetta2; the protein was added to HEK 293T cell lysate
T1 sequence (Q8IXJ6 34-356): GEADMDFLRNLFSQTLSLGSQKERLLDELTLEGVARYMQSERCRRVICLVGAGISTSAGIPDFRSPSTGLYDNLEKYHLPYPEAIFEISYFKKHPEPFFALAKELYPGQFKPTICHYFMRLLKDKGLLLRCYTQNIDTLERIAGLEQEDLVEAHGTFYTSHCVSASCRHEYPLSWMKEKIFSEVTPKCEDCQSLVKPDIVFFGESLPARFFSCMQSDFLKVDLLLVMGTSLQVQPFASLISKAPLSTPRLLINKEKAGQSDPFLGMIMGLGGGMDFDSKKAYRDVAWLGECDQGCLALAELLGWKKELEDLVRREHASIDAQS
The experiment in a line: Tubulin deacetylation assay in HEK cell lysates with added Sirt2. To be noted: 100 μM compound, 1 μg Sirt2. The method, then: Our novel compounds 3 and 4 are potent and specific Sirt2 inhibitors in vitro, and we next tested the effect of 4 (compound 3 is likely to be sensitive to esterase activity in lysates) on the Sirt2-dependent deacetylation of an in vivo substrate in a physiological environment. The acetylation levels of the Sirt2-deacetylation site Lys40 in α-tubulin [12] were analyzed in HEK cell lysates by using an acetyl-Lys40 specific antibody (Figure 4a). […] Thus, compound 4 is an inhibitor for the physiological α-tubulin deacetylation activity of Sirt2.
HEK 293T cells were grown in DMEM medium (PAN Biotech) supplemented with 10% fetal bovine serum (PAN Biotech) at 37°C and 5% CO2. Cells were harvested, washed with PBS, and resuspended and lysed using hypotonic buffer (10mM Tris-HCl, pH 8.0, 3mM KCl) supplemented with protease inhibitors cocktail. Cell debris was removed by centrifugation (10,000g, 10 minutes) at 4°C, and 50μl reaction were prepared with identical amounts of cell lysate and either 100 μM compound 4, 1 μg Sirt2, or both. All samples further contained the same amount of DMSO (to account for the solvent of the stock of 4) and 25 mM HEPES (pH 7.5; to compensate for the solvent of the NAD^+ stock). […]

A further assay concerns the target T2, Sirt6 (Homo sapiens, UniProt Q8N6T7).
T2 construct: Sirt6 residues 13-308; His-tag with linker comprising a TEV protease cleavage site (N, cleaved yes); made in house; host or cells: E. coli Rosetta2
The assay can be described thus: Fluor-de-Lys peptide deacetylation assay, Sirt6. The procedure, abridged:
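Fluor-de-Lys kit run with FdL-1 peptide RHK(acetyl-K), 0.1 mM, plus 0.5 mM NAD+. Compounds at 100 μM final, 30 min at 37 °C, then trypsin developer for 45 min at room temperature.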

A further assay addresses T3, Sirt5 (Homo sapiens, UniProt Q9NXA8).
T3 construct: Sirt5 residues 34-302; His-tag with linker comprising a TEV protease cleavage site (N); made in house
T3 sequence (Q9NXA8 34-302): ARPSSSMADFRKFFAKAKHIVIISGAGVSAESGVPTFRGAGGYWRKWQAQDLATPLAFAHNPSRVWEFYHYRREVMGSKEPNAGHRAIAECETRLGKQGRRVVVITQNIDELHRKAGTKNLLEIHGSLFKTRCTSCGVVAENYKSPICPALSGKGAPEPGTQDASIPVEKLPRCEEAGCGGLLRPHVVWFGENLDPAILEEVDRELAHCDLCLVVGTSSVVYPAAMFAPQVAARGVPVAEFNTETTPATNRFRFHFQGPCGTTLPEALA
The experiment in a line: Fluor-de-Lys peptide deacetylation assay, Sirt5. The procedure, abridged: (§1)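 E. coli-expressed human Sirtuins with 0.5 mM NAD+ and 0.1 mM Fluor-de-Lys peptide: FdL-2 (QPK(acetyl-K)) for Sirt3, FdL-1 (RHK(acetyl-K)) for Sirt5. Compounds at 100 μM final; 30 min at 37 °C, then trypsin developer for 45 min at room temperature.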

The target in another assay is T4, Sirt3 (Homo sapiens, UniProt Q9NTG7).
T4 construct: Sirt3 residues 114-399; His-tag with linker comprising a TEV protease cleavage site (N); made in house; host or cells: E. coli
T4 sequence (Q9NTG7 114-399): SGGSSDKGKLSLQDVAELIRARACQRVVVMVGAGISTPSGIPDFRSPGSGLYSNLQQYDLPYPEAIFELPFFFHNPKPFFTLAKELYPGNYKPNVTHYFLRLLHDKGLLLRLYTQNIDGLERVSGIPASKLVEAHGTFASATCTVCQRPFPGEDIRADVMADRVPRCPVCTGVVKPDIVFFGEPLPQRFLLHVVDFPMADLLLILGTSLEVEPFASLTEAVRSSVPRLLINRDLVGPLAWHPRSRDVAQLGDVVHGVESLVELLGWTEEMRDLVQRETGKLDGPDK
The assay can be described thus: Fluor-de-Lys peptide deacetylation assay, Sirt3. The procedure, abridged: as §1

T2 sequence (Q8N6T7 13-308): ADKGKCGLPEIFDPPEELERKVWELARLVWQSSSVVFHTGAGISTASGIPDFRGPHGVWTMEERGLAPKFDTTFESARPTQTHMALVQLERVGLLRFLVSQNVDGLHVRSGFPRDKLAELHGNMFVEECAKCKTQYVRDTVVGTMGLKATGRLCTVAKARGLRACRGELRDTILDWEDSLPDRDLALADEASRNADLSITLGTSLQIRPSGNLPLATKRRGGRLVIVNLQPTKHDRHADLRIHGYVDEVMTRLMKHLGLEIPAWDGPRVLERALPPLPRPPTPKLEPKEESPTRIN

For `CC12Cc3cnc(-c4ccccc4)nc3CC1CCC1C2CCC2(C)C1CCC2(C)O` (stereo not shown) [CSC13, 1,11a,13a-trimethyl-8-phenyl-2,3,3a,3b,4,5,5a,6,11,11a,11b,12,13,13a-tetradecahydro-1H-cyclopenta[5,6]naphtho[1,2-g]quinazolin-1-ol], the “effect on Sirt2-dependent α-tubulin Lys40 deacetylation” value in assay [1] was “the deacetylation effect was decreased”. The “Effect on the activity of Sirt6” value on Sirt6 was “--- (key: inhibition: significant inhibitory effects (>25% loss of activity); ---: no such effect)”. Besides, the “Effect on the activity of Sirt5” value on Sirt5 was “--- (key: inhibition: significant inhibitory effects (>25% loss of activity); ---: no such effect)”. In addition, the “Effect on the activity of Sirt3” value at Sirt3 was “--- (key: inhibition: significant inhibitory effects (>25% loss of activity); ---: no such effect)”.
